Results on 24 compounds are retold here after patent US20260226073A1 (AURIGENE ONCOLOGY LIMITED, priority 2023, published 2026).

Structures are written as SMILES. Some results are limits rather than exact numbers.

Assay [1] deals with T1, human recombinant CBL-b (human Biotin CBL-b recombinant protein a.a. 39-426) (Homo sapiens, UniProt Q13191).
T1 construct: human Biotin CBL-b recombinant protein a.a; 39-426; Biotin (biotinylated); made in house
The assay can be described thus: Biochemical assay for CBL-b inhibition (ligand displacement TR-FRET). It is filed as binding. To be noted: 50 nM CBL-b, 0.3 μM Bodipy FL-Probe, read-out: IC50 (CBL-b inhibition, group). The gist of the method:
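Biotinylated CBL-b (a.a. 39-426, 50 nM final) pre-incubated with compound 60 min at RT in HEPES/NaCl/Triton/BSA/TCEP buffer, then Bodipy FL probe (0.3 μM final) 60 min, then terbium-streptavidin 60 min. TR-FRET read at 665/615 nm; IC50 and % max inhibition from sigmoidal fits.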
On the technique in general: TR-FRET usually uses a lanthanide donor and a delayed reading to cut background.

In assay [2] the test system is NFAT signaling pathway in Jurkat NFAT reporter cells. The assay can be described thus: Jurkat NFAT reporter assay. Format: cell-based. Conditions: Homo sapiens, 30 min with compound, then soluble anti-human CD3/CD28 antibody for 6 hours, luciferase readout, read-out: EC50 (Group). The procedure, abridged:
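Jurkat cells bearing an NFAT-RE-driven luciferase reporter (1×10^5 per well) preincubated with Cbl-b inhibitor for 30 min, then stimulated 6 h with soluble anti-CD3/CD28. Luminescence read with Bio-Glo; values are fold change over anti-CD3/CD28-stimulated cells without inhibitor.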
On the technique in general: A reporter such as luciferase makes a cellular process visible.

T1 sequence (Q13191 39-426): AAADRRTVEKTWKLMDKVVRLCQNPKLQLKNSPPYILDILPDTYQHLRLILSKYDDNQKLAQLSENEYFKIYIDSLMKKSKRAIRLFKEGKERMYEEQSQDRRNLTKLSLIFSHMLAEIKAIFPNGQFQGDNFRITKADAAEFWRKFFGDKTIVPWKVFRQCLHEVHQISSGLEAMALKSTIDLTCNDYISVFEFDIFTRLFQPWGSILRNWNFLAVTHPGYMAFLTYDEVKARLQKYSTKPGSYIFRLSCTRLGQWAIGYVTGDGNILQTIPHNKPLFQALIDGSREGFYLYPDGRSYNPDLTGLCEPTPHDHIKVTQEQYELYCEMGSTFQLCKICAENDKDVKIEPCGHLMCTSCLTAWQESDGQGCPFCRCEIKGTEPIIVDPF

Usually IC50 stands for the concentration that inhibits the measured activity by half. Usually EC50 stands for the midpoint of the concentration-response curve. For `C[C@@H]1C[C@H](C)CN(Cc2cc(N3Cc4ccc(C5(Cc6nncn6C)CC(C#N)C5)cc4C3=O)nc(C(F)(F)F)c2)C1` (stereo partly drawn) [Compound 143], in assay [1], the IC50 was less than 80 nM. Further, in assay [2], the concentration giving a half-maximal response (EC50) is less than 300 nM.
As for `Cn1cnnc1-c1cc(Cl)ccc1-c1ccc2c(c1)C(=O)N(c1cc(CNC[C@H]3CCCO3)cc(Cl)n1)C2` (single isomer, unassigned) [Compound 124, 6-(4-Chloro-2-(4-methyl-4H-1,2,4-triazol-3-yl)phenyl)-2-(6-chloro-4-((((tetra-hydrofuran-2-yl)methyl)amino)methyl)pyridin-2-yl)isoindolin-1-one], the half-maximal inhibitory concentration (IC50) in assay [1] was less than 80 nM. Further, the EC50 in assay [2] was less than 300 nM.
`Cc1cc(CNC(C2CC2)C2CC2)cc(N2Cc3ccc(-c4ccc(F)cc4-c4nncn4C)cc3C2=O)n1` [Compound 298, 2-(4-(((Dicyclopropylmethyl)amino)methyl)-6-methylpyridin-2-yl)-6-(4-fluoro-2-(4-methyl-4H-1,2,4-triazol-3-yl)phenyl)isoindolin-1-one]: the IC50 in assay [1] was less than 80 nM. In addition, the EC50 in assay [2] is less than 300 nM.
On to `Cn1cnnc1-c1cc(Cl)ccc1-c1ccc2c(c1)C(=O)N(c1cc(C(C)(C)NCC3CC3)cc(Cl)n1)C2` [Compound 275, 6-(4-Chloro-2-(4-methyl-4H-1,2,4-triazol-3-yl)phenyl)-2-(6-chloro-4-(2-((cyclopropylmethyl)amino)propan-2-yl)pyridin-2-yl)isoindolin-1-one], for which the IC50 in assay [1] is less than 80 nM. Further, the EC50 in assay [2] is less than 300 nM.
Taken in the same sequence, the figures for `C[C@H]1CCCN(Cc2cc(Cl)nc(N3Cc4ccc(-c5ccc(C#N)cc5-c5nncn5C)cc4C3=O)c2)C1` [Compound 112, (S)-4-(2-(6-Chloro-4-((3-methylpiperidin-1-yl)methyl)pyridin-2-yl)-3-oxoiso-indolin-5-yl)-3-(4-methyl-4H-1,2,4-triazol-3-yl)benzonitrile] were less than 80 nM and less than 300 nM.
Consider `Cc1cc(CNCC(C)(C)O)cc(N2Cc3ccc(-c4ccc(F)cc4-c4nncn4C)cc3C2=O)n1` [Compound 309, 6-(4-Fluoro-2-(4-methyl-4H-1,2,4-triazol-3-yl)phenyl)-2-(4-(((2-hydroxy-2-methylpropyl)amino)methyl)-6-methylpyridin-2-yl)isoindolin-1-one], for which the IC50 in assay [1] was less than 80 nM. The EC50 in assay [2] is less than 300 nM.
Taken in the same sequence, the figures for `Cc1cc(CN2CCC3(CC3)C2)cc(N2Cc3ccc(-c4ccc(F)cc4-c4nncn4C)cc3C2=O)n1` [Compound 259] were less than 80 nM and 1000 to 10000 nM.
Taken in the same sequence, the figures for `CC(C)c1cc(CN2CCC[C@H](C)C2)cc(N2Cc3ccc(C4(Cc5nncn5C)COC4)cc3C2=O)c1` [Compound 15, (S)-2-(3-Isopropyl-5-((3-methylpiperidin-1-yl)methyl)phenyl)-6-(3-((4-methyl-4H-1,2,4-triazol-3-yl)methyl)oxetan-3-yl)isoindolin-1-one] were 80 to 300 nM and 300 to 1000 nM.
On to `Cc1cc(CNCC2CC2)cc(N2Cc3ccc(-c4ccc(F)cc4-c4nncn4C4CC4)cc3C2=O)n1` [Compound 320, 6-(2-(4-Cyclopropyl-4H-1,2,4-triazol-3-yl)-4-fluorophenyl)-2-(4-(((cyclopropyl-methyl)amino)methyl)-6-methylpyridin-2-yl)isoindolin-1-one], for which the IC50 in assay [1] was less than 80 nM. Moreover, the half-maximal effective concentration (EC50) in assay [2] is 300 to 1000 nM.
As to `C[C@H](NCC1CC1)c1cc(Cl)nc(N2Cc3ccc(C4(Cc5nncn5C)COC4)cc3C2=O)c1` (single isomer, unassigned) [Compound 167], in assay [1], the IC50 is less than 80 nM. Moreover, in assay [2], the EC50 is less than 300 nM.
In the case of `[2H]C([2H])([2H])n1cnnc1-c1cc(F)ccc1-c1ccc2c(c1)C(=O)N(c1cc(CNCC3CC3)cc(C)n1)C2` [Compound 310, 2-(4-(((Cyclopropylmethyl)amino)methyl)-6-methylpyridin-2-yl)-6-(4-fluoro-2-(4-(methyl-d3)-4H-1,2,4-triazol-3-yl)phenyl)isoindolin-1-one], the IC50 in assay [1] was less than 80 nM. Moreover, the EC50 in assay [2] is less than 300 nM.
Regarding `Cn1cnnc1CC1(c2ccc3c(c2)C(=O)N(c2cc(CN4CCCc5c4cnn5C)cc(C(F)(F)F)n2)C3)COC1` [Compound 92, 2-(4-((1-Methyl-1,5,6,7-tetrahydro-4H-pyrazolo[4,3-b]pyridin-4-yl)methyl)-6-(trifluoromethyl)pyridin-2-yl)-6-(3-((4-methyl-4H-1,2,4-triazol-3-yl)methyl)oxetan-3-yl)isoindolin-1-one], in assay [1], the IC50 was 300 to 5000 nM. Besides, the EC50 in assay [2] lay within 1000 to 10000 nM.
In the case of `CC(Cc1nncn1C)c1ccc2c(c1)C(=O)N(c1cc(CN3CCC[C@H](C)C3)cc(Cl)n1)C2` (stereo partly drawn) [Compound 83, 2-(6-Chloro-4-(((S)-3-methylpiperidin-1-yl)methyl)pyridin-2-yl)-6-(1-(4-methyl-4H-1,2,4-triazol-3-yl)propan-2-yl)isoindolin-1-one], the concentration for half-maximal inhibition (IC50) in assay [1] is less than 80 nM. In addition, the 50% effective concentration (EC50) in assay [2] is less than 300 nM.
Turning to `Cc1cc(CNCC2CC2)cc(N2Cc3ccc(C4(Cc5nncn5C)COC4)cc3C2=O)c1` [Compound 18, 2-(3-(((Cyclopropylmethyl)amino)methyl)-5-methylphenyl)-6-(3-((4-methyl-4H-1,2,4-triazol-3-yl)methyl)oxetan-3-yl)isoindolin-1-one], in assay [1], the IC50 is less than 80 nM. In addition, in assay [2], the EC50 is 1000 to 10000 nM.
As to `C[C@@H]1C[C@H](C)CN(Cc2cc(N3Cc4ccc([C@@H](C)Cc5nncn5C)cc4C3=O)nc(C(F)(F)F)c2)C1` (single isomer, unassigned) [Compound 86], in assay [1], the IC50 was less than 80 nM. For the same compound, the EC50 in assay [2] is less than 300 nM.
For the compound `Cn1cnnc1-c1ccccc1-c1ccc2c(c1)C(=O)N(c1cc(CNCCC(F)(F)F)cc(Cl)n1)C2` [Compound 116, 2-(6-Chloro-4-(((3,3,3-trifluoropropyl)amino)methyl)pyridin-2-yl)-6-(2-(4-methyl-4H-1,2,4-triazol-3-yl)phenyl)isoindolin-1-one], the IC50 in assay [1] was less than 80 nM. In addition, the EC50 in assay [2] was in the range of 1000 to 10000 nM.
Taken in the same sequence, the figures for `CCCNCc1cc(C)nc(N2Cc3ccc(-c4ccc(F)cc4-c4nncn4C)cc3C2=O)c1` [Compound 323, 6-(4-Fluoro-2-(4-methyl-4H-1,2,4-triazol-3-yl)phenyl)-2-(6-methyl-4-((propyl-amino)methyl)pyridin-2-yl)isoindolin-1-one] were less than 80 nM and less than 300 nM.
Regarding `C[C@H]1CCCN(Cc2cc(N3Cc4ccc(C5(Cc6nncn6C)COC5)cc4C3=O)cc(C(F)(F)F)n2)C1` [Compound 17, (S)-6-(3-((4-Methyl-4H-1,2,4-triazol-3-yl)methyl)oxetan-3-yl)-2-(2-((3-methyl-piperidin-1-yl)methyl)-6-(trifluoromethyl)pyridin-4-yl)isoindolin-1-one], the IC50 in assay [1] lay within 300 to 5000 nM. In addition, the concentration giving a half-maximal response (EC50) in assay [2] fell in the range of 1000 to 10000 nM.
As for `C[C@H]1CCCN(Cc2cc(F)cc(N3Cc4ccc(C5(Cc6nncn6C)COC5)cc4C3=O)c2)C1` [Compound 3, (S)-2-(3-Fluoro-5-((3-methylpiperidin-1-yl)methyl)phenyl)-6-(3-((4-methyl-4H-1,2,4-triazol-3-yl)methyl)oxetan-3-yl)isoindolin-1-one], in assay [1], the IC50 was less than 80 nM. For the same compound, in assay [2], the EC50 was 1000 to 10000 nM.
Take `Cc1cc(CNCC2CC2)cc(N2Cc3ccc(-c4ccc(F)cc4-c4nncn4C)cc3C2=O)n1` [Compound 127, 2-(4-(((Cyclopropylmethyl)amino)methyl)-6-methylpyridin-2-yl)-6-(4-fluoro-2-(4-methyl-4H-1,2,4-triazol-3-yl)phenyl)isoindolin-1-one]: in assay [1], the concentration for half-maximal inhibition (IC50) was less than 80 nM. For the same compound, the 50% effective concentration (EC50) in assay [2] is less than 300 nM.
`Cc1cc(CN2CCC[C@H](C)C2)cc(N2Cc3ccc(C4(Cc5nncn5C)COC4)cc3C2=O)n1` [Compound 26, (S)-2-(6-Methyl-4-((3-methylpiperidin-1-yl)methyl)pyridin-2-yl)-6-(3-((4-methyl-4H-1,2,4-triazol-3-yl)methyl)oxetan-3-yl)isoindolin-1-one]: the IC50 in assay [1] is less than 80 nM. Also, the EC50 in assay [2] was less than 300 nM.
As to `CC(CNCc1cc(Cl)nc(N2Cc3ccc(C4(Cc5nncn5C)COC4)cc3C2=O)c1)C(F)(F)F` (stereo not drawn) [Compound 202, 2-(6-Chloro-4-(((3,3,3-trifluoro-2-methylpropyl)amino)methyl)pyridin-2-yl)-6-(3-((4-methyl-4H-1,2,4-triazol-3-yl)methyl)oxetan-3-yl)isoindolin-1-one], in assay [1], the concentration for half-maximal inhibition (IC50) was less than 80 nM. The EC50 in assay [2] was less than 300 nM.
As for `Cn1cnnc1CC1(c2ccc3c(c2)C(=O)N(c2cc(CNCC4CC4)cc(Cl)n2)C3)CC2(CCC2)C1` [Compound 255, 2-(6-Chloro-4-(((cyclopropylmethyl)amino)methyl)pyridin-2-yl)-6-(2-((4-methyl-4H-1,2,4-triazol-3-yl)methyl)spiro[3.3]heptan-2-yl)isoindolin-1-one], in assay [1], the IC50 is less than 80 nM. For the same compound, the EC50 in assay [2] fell in the range of 1000 to 10000 nM.
Regarding `Cc1nc(N2Cc3ccc(-c4ccc(F)cc4-c4nncn4C)cc3C2=O)cc(CNCC2CC2)c1C(F)(F)F` [Compound 337, 2-(4-(((Cyclopropylmethyl)amino)methyl)-6-methyl-5-(trifluoromethyl)-pyridin-2-yl)-6-(4-fluoro-2-(4-methyl-4H-1,2,4-triazol-3-yl)phenyl)isoindolin-1-one], the concentration for half-maximal inhibition (IC50) in assay [1] was less than 80 nM. Moreover, in assay [2], the concentration for a half-maximal effect (EC50) fell in the range of 1000 to 10000 nM.
